Assay results taken from patent US4921846A, “Novel 17-hetero substituted steroids” (Roussel Uclaf, priority 1987, dated 1990).

Key:
[1] = biological target: T1, Progestogene receptor of the uterus of a rabbit (Oryctolagus cuniculus, UniProt P06186); assay: Progestogene receptor of the uterus of a rabbit, relative bond affinity; assay type: binding; settings: for relative bond affinity (RBA), Progestogene: RBA=100(CH)/(CX)
T1 construct: The uteri were removed, weighted and homogenized at 0° C; from tissue; host or cells: uterus of estradiol-treated impuberal female rabbits, 105,000 g supernatant (cytosol)
T1 sequence (P06186 1-930): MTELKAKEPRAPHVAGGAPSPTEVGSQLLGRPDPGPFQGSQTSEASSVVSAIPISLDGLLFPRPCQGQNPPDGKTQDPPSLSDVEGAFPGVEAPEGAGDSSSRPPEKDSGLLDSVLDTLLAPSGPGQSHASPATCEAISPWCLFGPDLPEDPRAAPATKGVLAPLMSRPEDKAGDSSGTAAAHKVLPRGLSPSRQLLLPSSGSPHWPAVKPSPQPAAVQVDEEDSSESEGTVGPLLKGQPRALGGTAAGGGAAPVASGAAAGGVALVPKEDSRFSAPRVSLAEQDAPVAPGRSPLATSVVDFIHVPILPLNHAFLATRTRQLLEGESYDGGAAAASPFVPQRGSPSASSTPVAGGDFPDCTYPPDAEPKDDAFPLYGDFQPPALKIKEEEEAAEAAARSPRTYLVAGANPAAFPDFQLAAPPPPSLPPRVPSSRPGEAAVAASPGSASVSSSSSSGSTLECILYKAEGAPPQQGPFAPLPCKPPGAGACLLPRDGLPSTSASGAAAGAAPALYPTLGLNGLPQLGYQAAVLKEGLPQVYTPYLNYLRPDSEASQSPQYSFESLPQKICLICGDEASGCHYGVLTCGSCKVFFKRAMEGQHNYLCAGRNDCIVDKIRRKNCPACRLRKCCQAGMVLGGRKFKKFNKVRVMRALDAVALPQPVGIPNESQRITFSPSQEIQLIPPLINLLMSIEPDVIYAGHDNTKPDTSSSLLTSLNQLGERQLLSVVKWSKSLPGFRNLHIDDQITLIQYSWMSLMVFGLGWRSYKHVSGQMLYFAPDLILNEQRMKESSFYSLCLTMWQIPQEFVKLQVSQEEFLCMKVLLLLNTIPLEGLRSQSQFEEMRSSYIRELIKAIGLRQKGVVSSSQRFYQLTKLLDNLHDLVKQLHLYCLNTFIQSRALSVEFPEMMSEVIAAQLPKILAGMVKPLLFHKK
Procedure: Impuberal female rabbits of about 1 kg received a cutaneous application of […] of estradiol and, 5 days after this treatment, the animals were killed. The uteri were removed, weighted and homogenized at 0° C. in a Potter teflon-dish in a buffered solution TS (Tris 10 mM, saccharose 0.25M, HCl pH 7.4) (1 g of tissue per 50 ml of TS). The homogenate was then ultra-centrifuged (105,000 g×90 minutes) at 0° C. and aliquots of the supernatant thus obtained were incubated at 0° C. for a time t, with a constant concentration (T) of tritiated product R (17,21-dimethyl-19-nor-Δ^4,9 -pregnadien-3,20-dione) in the presence of increasing concentrations (0-2500×10^-9 M) either of cold R, or of cold progesterone or of the cold product under test. The concentration of bonded tritiated R (B) […] by the technique of adsorption on dextran carbon.
(§1) The calculation of the relative bond affinity (RBA) was the same for all the receptors. The following 2 curves were drawn: the percentage of bonded tritiated hormone B/T as a function of the logarithm of the concentration of the cold reference hormone and B/T as a function of the logarithm of the concentration of the cold product under test. The straight line of the equation I50 =(B max/T+B min/T)/2 was determined. B/T max = percentage of bonded tritiated hormone for an incubation of this hormone tritiated at a concentration (T). B/T min = percentage of bonded tritiated hormone for an incubation of this tritiated hormone at a concentration (T) in the presence of a large excess of cold hormone (2500×10^-9 M). The intersections of the straight line I50 and the curves enables the concentrations of cold reference hormone (CH) and of cold product under test (CX) which inhibit by 50% the bond of the tritiated hormone on the receptor to be evaluated. The relative bond affinity (RBA) of the product tested was determined by the equation: […]

[2] = biological target: T2, Glucocorticoid receptor of the thymus of a rat (Rattus norvegicus, UniProt P06536); assay: Glucocorticoid receptor of the thymus of a rat, relative bond affinity; assay type: binding; settings: for relative bond affinity (RBA), Glucocorticoid: RBA=100(CH)/(CX), reference dexamethasone
T2 construct: The thymuses were removed and homogenized at 0° C; from tissue; host or cells: thymus of adrenalectomized male Sprague-Dawley rats, 105,000 g supernatant (cytosol)
T2 sequence (P06536 1-795): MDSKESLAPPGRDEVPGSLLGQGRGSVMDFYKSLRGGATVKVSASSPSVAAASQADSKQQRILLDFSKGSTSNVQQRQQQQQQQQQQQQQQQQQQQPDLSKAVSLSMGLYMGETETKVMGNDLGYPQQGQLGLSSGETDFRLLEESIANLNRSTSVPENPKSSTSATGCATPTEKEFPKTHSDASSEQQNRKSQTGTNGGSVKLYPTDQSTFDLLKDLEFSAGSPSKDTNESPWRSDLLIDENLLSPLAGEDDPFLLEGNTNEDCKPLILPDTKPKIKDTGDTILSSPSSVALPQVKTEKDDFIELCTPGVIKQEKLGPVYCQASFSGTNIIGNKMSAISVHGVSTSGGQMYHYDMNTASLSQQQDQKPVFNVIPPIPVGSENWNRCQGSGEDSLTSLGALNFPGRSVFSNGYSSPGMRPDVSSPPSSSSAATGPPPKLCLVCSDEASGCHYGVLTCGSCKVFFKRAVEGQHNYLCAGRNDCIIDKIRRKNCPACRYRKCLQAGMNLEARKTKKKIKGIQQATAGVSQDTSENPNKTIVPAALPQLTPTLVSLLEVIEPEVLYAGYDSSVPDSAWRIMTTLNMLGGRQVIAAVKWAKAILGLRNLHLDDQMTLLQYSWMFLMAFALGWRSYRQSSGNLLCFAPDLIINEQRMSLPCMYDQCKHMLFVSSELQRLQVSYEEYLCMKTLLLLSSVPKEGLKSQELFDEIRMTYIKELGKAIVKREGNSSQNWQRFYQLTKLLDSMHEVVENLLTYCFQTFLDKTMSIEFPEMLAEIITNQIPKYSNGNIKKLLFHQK
Procedure: Sprague-Dawley EPOS male rats weighting 160 to 200 g were suprarenalectomized and, 4 to 8 days after this removal, the animals were killed. The thymuses were removed and homogenized at 0° C. in a buffer Tris 10 mM, saccharose 0.25M, dithiothreitol 2 mM, HCl, pH 7.4, with Potter polytetrafluoroethylene-dish (1 g of tissue per 10 ml of TS). The homogenate was then ultra-centrifuged (105,000 g×90 minutes) at 0° C. Aliquots of the supernatant thus obtained were incubated at 0° C. for a time t, with a constant concentration (T) of tritiated dexamethasone in the presence of increasing concentrations (0-2500×10^-9 M) either of cold dexamethasone, or of cold product under test. The concentration of bonded tritiated […] (B) was then measured in each incubate by the technique of adsorption on dextran carbon.
as §1

[3] = test system: Thymocytes of suprarenalectomized rats; assay: Antiglucocorticoid activity: tritiated uridin incorporation in thymocytes with dexamethasone; assay type: cell-based; settings: Rattus norvegicus, Thymocyte, 5.10^-8 M dexamethasone, 37° C., read-out: % inhibition of the effect of dexamethasone; for inhibition at 1 µM: product at 10^-6 M; for inhibition at 0.1 µM: product at 10^-7 M; for inhibition at 0.01 µM: product at 10^-8 M
Procedure: The technique used was derived from the method described by Dausse et al in Molecular Pharmacology, Vol. 13, p.
Thymocytes of suprarenalectomized rats were incubated at 37° C. for 3 hours in a nutritive medium containing 5.10^-8 M of dexamethasone in the presence or absence of a product test at various concentrations. Tritiated uridin was added and incubation was continued for one hour. The incubates were cooled, treated with a 5% solution of trichloroacetic acid, filtered on Whatman GF/A paper and washed three time with a 5% solution of trichloroacetic acid. The radioactivity retained by the filter was determined. Glucocorticoids and, in particular dexamethasone, cause a decrease in the incorporation of tritiated uridin.

female rat = assay: Abortive activity in a female rat; assay type: in vivo; settings: 3 mg/kg on day D9 of gestation, suspension in carboxymethyl cellulose containing 0.5% Tween; examined 72 hours after treatment
Procedure: Day D1 of gestation was determined by the presence of spermatozoids in the vaginal smear and, on day D9 of the gestation, the product was administered in suspension in carboxymethyl cellulose containing 0.5% Tween. The animals were killed 72 hours after the treatment and the uterus was examined to determine the state of gestation.

Row | relative bond affinity (RBA), Progestogene ([1]; Incubation Time at 0° C.: 2 H) | relative bond affinity (RBA), Progestogene ([1]; Incubation Time at 0° C.: 4 H) | relative bond affinity (RBA), Glucocorticoid ([2]; Incubation Time at 0° C.: 2 H) | relative bond affinity (RBA), Glucocorticoid ([2]; Incubation Time at 0° C.: 4 H) | affinity for progestogen receptors (in words) ([1]; conclusion) | affinity for glucocorticoid receptors (in words) ([2]; conclusion) | SMILES | inhibition at 1 µM [3] [%] | inhibition at 0.1 µM [3] [%] | inhibition at 0.01 µM [3] [%] | abortion (state of gestation) (female rat)
1 | 24 | 157 | 23 | 24 |  |  | CN(C)c1ccc([C@H]2C[C@@]3(C)[C@@H](CC[C@@]34CCCCO4)[C@@H]3CCC4=CC(=O)CCC4=C32)cc1 [Example 3, (17S) 11β-[4-(dimethylamino)-phenyl]-3',4',5',6'-tetrahydro spiro (Δ^4,8-estradien-17,2'-(2H)pyran)-3-one] | 93 | 22 | 7 | 
2 | 93 | 415 | 126 | 43 | marked affinity | marked affinity | CN(C)c1ccc([C@H]2C[C@@]3(C)[C@@H](CC[C@@]34CCO4)[C@@H]3CCC4=CC(=O)CCC4=C32)cc1 [Example 1, (17R) 11β-[4-(dimethylamino)-phenyl]-spiro-(Δ^4,9-estradien-17,2'-oxetan)-3-one] | 122 | 55 | 16 | complete abortion in all the animals of the group

Row | SMILES | relative bond affinity (RBA), Progestogene ([1]; Incubation Time at 0° C.: 2 H) | relative bond affinity (RBA), Progestogene ([1]; Incubation Time at 0° C.: 4 H) | relative bond affinity (RBA), Glucocorticoid ([2]; Incubation Time at 0° C.: 2 H) | relative bond affinity (RBA), Glucocorticoid ([2]; Incubation Time at 0° C.: 4 H) | affinity for progestogen receptors (in words) ([1]; conclusion) | affinity for glucocorticoid receptors (in words) ([2]; conclusion) | inhibition at 1 µM [3] [%] | inhibition at 0.1 µM [3] [%] | inhibition at 0.01 µM [3] [%] | abortion (state of gestation) (female rat)
3 | CSc1ccc([C@H]2C[C@@]3(C)[C@@H](CC[C@@]34CCO4)[C@@H]3CCC4=CC(=O)CCC4=C32)cc1 [Example 2, (17R) 11β-[4-(methylthio)-phenyl]-spiro-(Δ^4,9-estradient-17,2'-oxetan)-3-one] | 23 | 67 | 56 | 22 |  |  | 76 | 27 | 10 | 
